Measured values from US11117900B2 (Vertex Pharmaceuticals Incorporated, priority 2012, dated 2021).

Tested on: HCT116 colorectal cancer cells
Assay: Cisplatin sensitization assay (96 h MTS cell viability);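 further: compound concentration needed to lower the IC50 of Cisplatin alone by a set fold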
Format: cell-based
Settings: Cisplatin sensitization value
Method in brief: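 HCT116 cells were dosed simultaneously with compound and cisplatin as a full matrix of 2-fold serial dilutions from 10 μM top final concentration. Incubation was 96 h at 37° C., 5% CO2, followed by 1 h with MTS reagent for the viability read-out. Sensitization values were binned into +++, ++ and + categories.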

Structure (SMILES) | Cisplatin Sensitization Assay
Nc1nn2cc(Cl)cnc2c1C(=O)Nc1cnccc1N1CCCC(N)C1 (stereo not shown) [I-N-55, 2-amino-N-(4-(3-aminopiperidin-1-yl)pyridin-3-yl)-6-chloropyrazolo[1,5-a]pyrimidine-3-carboxamide] | ++ (Compounds with a Cisplatin sensitization value >0.02 μM but <0.2 μM are marked with “++.”)
Nc1nn2cc(Cl)cnc2c1C(=O)Nc1cnccc1N1CCN2CCC1CC2 [I-N-56, N-(4-(1,4-diazabicyclo[3.2.2]nonan-4-yl)pyridin-3-yl)-2-amino-6-chloropyrazolo[1,5-a]pyrimidine-3-carboxamide] | ++ (Compounds with a Cisplatin sensitization value >0.02 μM but <0.2 μM are marked with “++.”)
Cc1cncc(NC(=O)c2c(N)nn3cc(Cl)cnc23)c1N1CCN(C)CC1 [I-N-57, 2-amino-6-chloro-N-(5-methyl-4-(4-methylpiperazin-1-yl)pyridin-3-yl)pyrazolo[1,5-a]pyrimidine-3-carboxamide] | +++ (Compounds with a Cisplatin sensitization value of <0.02 μM are marked with “+++.”)
Nc1nn2cc(Cl)cnc2c1C(=O)Nc1cnccc1N1CCN(C2COC2)CC1 [I-N-58, 2-amino-6-chloro-N-(4-(4-(oxetan-3-yl)piperazin-1-yl)pyridin-3-yl)pyrazolo[1,5-a]pyrimidine-3-carboxamide] | ++ (Compounds with a Cisplatin sensitization value >0.02 μM but <0.2 μM are marked with “++.”)
CN1CCN(c2ccncc2NC(=O)c2c(N)nn3cc(Cl)cnc23)CC1 [I-N-59, 2-amino-6-chloro-N-(4-(4-methylpiperazin-1-yl)pyridin-3-yl)pyrazolo[1,5-a]pyrimidine-3-carboxamide] | ++ (Compounds with a Cisplatin sensitization value >0.02 μM but <0.2 μM are marked with “++.”)
COCCN1CCN(c2ccncc2NC(=O)c2c(N)nn3cc(Cl)cnc23)CC1 [I-N-60, 2-amino-6-chloro-N-(4-(4-(2-methoxyethyl)piperazin-1-yl)pyridin-3-yl)pyrazolo[1,5-a]pyrimidine-3-carboxamide] | +++ (Compounds with a Cisplatin sensitization value of <0.02 μM are marked with “+++.”)
CN1CCN2CCN(c3ccncc3NC(=O)c3c(N)nn4cc(Cl)cnc34)CC2C1 (stereo not shown) [I-N-61, 2-amino-6-chloro-N-(4-(8-methylhexahydro-1H-pyrazino[1,2-a]pyrazin-2(6H)-yl)pyridin-3-yl)pyrazolo[1,5-a]pyrimidine-3-carboxamide] | +++ (Compounds with a Cisplatin sensitization value of <0.02 μM are marked with “+++.”)
CC1(N2CCN(c3ccncc3NC(=O)c3c(N)nn4cc(F)cnc34)CC2)COC1 [I-N-62, 2-amino-6-fluoro-N-(4-(4-(3-methyloxetan-3-yl)piperazin-1-yl)pyridin-3-yl)pyrazolo[1,5-a]pyrimidine-3-carboxamide] | ++ (Compounds with a Cisplatin sensitization value >0.02 μM but <0.2 μM are marked with “++.”)
CN1CCN(c2ccncc2NC(=O)c2c(N)nn3cc(Cl)cnc23)CC1CO (stereo not shown) [I-N-63, 2-amino-6-chloro-N-(4-(3-(hydroxymethyl)-4-methylpiperazin-1-yl)pyridin-3-yl)pyrazolo[1,5-a]pyrimidine-3-carboxamide] | ++ (Compounds with a Cisplatin sensitization value >0.02 μM but <0.2 μM are marked with “++.”)
Nc1nn2cc(Cl)cnc2c1C(=O)Nc1cnccc1N1CCN(C2CC2)CC1 [I-N-64, 2-amino-6-chloro-N-(4-(4-cyclopropylpiperazin-1-yl)pyridin-3-yl)pyrazolo[1,5-a]pyrimidine-3-carboxamide] | +++ (Compounds with a Cisplatin sensitization value of <0.02 μM are marked with “+++.”)
Nc1nn2cc(Cl)cnc2c1C(=O)Nc1cnccc1N1CCN2CCC[C@@H]2C1 [I-N-65, (R)-2-amino-6-chloro-N-(4-(hexahydropyrrolo[1,2-a]pyrazin-2(1H)-yl)pyridin-3-yl)pyrazolo[1,5-a]pyrimidine-3-carboxamide] | + (Compounds with a Cisplatin sensitization value >0.2 μM but <5 μM are marked with “+.”)
CC1(O)CCN(c2ccncc2NC(=O)c2c(N)nn3cc(Cl)cnc23)CC1 [I-N-66, 2-amino-6-chloro-N-(4-(4-hydroxy-4-methylpiperidin-1-yl)pyridin-3-yl)pyrazolo[1,5-a]pyrimidine-3-carboxamide] | +++ (Compounds with a Cisplatin sensitization value of <0.02 μM are marked with “+++.”)
Nc1nn2cc(Cl)cnc2c1C(=O)Nc1cnccc1N1CCN(CC(F)(F)F)CC1 [I-N-67, 2-amino-6-chloro-N-(4-(4-(2,2,2-trifluoroethyl)piperazin-1-yl)pyridin-3-yl)pyrazolo[1,5-a]pyrimidine-3-carboxamide] | +++ (Compounds with a Cisplatin sensitization value of <0.02 μM are marked with “+++.”)
Nc1nn2cc(Cl)cnc2c1C(=O)Nc1cnccc1N1CC[S+]([O-])CC1 [I-N-68, 2-amino-6-chloro-N-(4-(1-oxidothiomorpholino)pyridin-3-yl)pyrazolo[1,5-a]pyrimidine-3-carboxamide] | +++ (Compounds with a Cisplatin sensitization value of <0.02 μM are marked with “+++.”)
CC(C)(O)C1CCN(c2ccncc2NC(=O)c2c(N)nn3cc(Cl)cnc23)CC1 [I-N-69, 2-amino-6-chloro-N-(4-(4-(2-hydroxypropan-2-yl)piperidin-1-yl)pyridin-3-yl)pyrazolo[1,5-a]pyrimidine-3-carboxamide] | +++ (Compounds with a Cisplatin sensitization value of <0.02 μM are marked with “+++.”)
Nc1nn2cc(Cl)cnc2c1C(=O)Nc1cnccc1N1CCNC(C(F)(F)F)C1 (stereo not shown) [I-N-70, 2-amino-6-chloro-N-(4-(3-(trifluoromethyl)piperazin-1-yl)pyridin-3-yl)pyrazolo[1,5-a]pyrimidine-3-carboxamide] | ++ (Compounds with a Cisplatin sensitization value >0.02 μM but <0.2 μM are marked with “++.”)
Nc1nn2cc(Cl)cnc2c1C(=O)Nc1cnccc1N1CCN2CCC[C@H]2C1 [I-N-71, (S)-2-amino-6-chloro-N-(4-(hexahydropyrrolo[1,2-a]pyrazin-2(1H)-yl)pyridin-3-yl)pyrazolo[1,5-a]pyrimidine-3-carboxamide] | +++ (Compounds with a Cisplatin sensitization value of <0.02 μM are marked with “+++.”)
CC1CN(C)CCN1c1ccncc1NC(=O)c1c(N)nn2cc(Cl)cnc12 (stereo not shown) [I-N-72, 2-amino-6-chloro-N-(4-(2,4-dimethylpiperazin-1-yl)pyridin-3-yl)pyrazolo[1,5-a]pyrimidine-3-carboxamide] | +++ (Compounds with a Cisplatin sensitization value of <0.02 μM are marked with “+++.”)
COC1CCN(c2ccncc2NC(=O)c2c(N)nn3cc(Cl)cnc23)CC1 [I-N-73, 2-amino-6-chloro-N-(4-(4-methoxypiperidin-1-yl)pyridin-3-yl)pyrazolo[1,5-a]pyrimidine-3-carboxamide] | +++ (Compounds with a Cisplatin sensitization value of <0.02 μM are marked with “+++.”)
COC(=O)C1CCN(c2ccncc2NC(=O)c2c(N)nn3cc(Cl)cnc23)CC1 [I-N-74, methyl-1-(3-(2-amino-6-chloropyrazolo[1,5-a]pyrimidine-3-carboxamido)pyridin-4-yl)piperidine-4-carboxylate] | +++ (Compounds with a Cisplatin sensitization value of <0.02 μM are marked with “+++.”)
Nc1nn2cc(Cl)cnc2c1C(=O)Nc1cnccc1N1CCn2cncc2C1 [I-N-75, 2-amino-6-chloro-N-(4-(5,6-dihydroimidazo[1,5-a]pyrazin-7(8H)-yl)pyridin-3-yl)pyrazolo[1,5-a]pyrimidine-3-carboxamide] | +++ (Compounds with a Cisplatin sensitization value of <0.02 μM are marked with “+++.”)
CN1CCN(c2ccncc2NC(=O)c2c(N)nn3cc(C(C)(C)C#N)cnc23)CC1 [I-N-76, 2-amino-6-(2-cyanopropan-2-yl)-N-(4-(4-methylpiperazin-1-yl)pyridin-3-yl)pyrazolo[1,5-a]pyrimidine-3-carboxamide] | +++ (Compounds with a Cisplatin sensitization value of <0.02 μM are marked with “+++.”)
N#CCc1cnc2c(C(=O)Nc3cnccc3N3CCCC3)c(N)nn2c1 [I-N-77, 2-amino-6-(cyanomethyl)-N-(4-(pyrrolidin-1-yl)pyridin-3-yl)pyrazolo[1,5-a]pyrimidine-3-carboxamide] | + (Compounds with a Cisplatin sensitization value >0.2 μM but <5 μM are marked with “+.”)
N#CCc1cnc2c(C(=O)Nc3cnccc3N3CCCCCC3)c(N)nn2c1 [I-N-79, 2-amino-N-(4-(azepan-1-yl)pyridin-3-yl)-6-(cyanomethyl)pyrazolo[1,5-a]pyrimidine-3-carboxamide] | ++ (Compounds with a Cisplatin sensitization value >0.02 μM but <0.2 μM are marked with “++.”)
CN1CCN(c2c(F)cncc2NC(=O)c2c(N)nn3cc(CC#N)cnc23)CC1 [I-N-80, 2-amino-6-(cyanomethyl)-N-(5-fluoro-4-(4-methylpiperazin-1-yl)pyridin-3-yl)pyrazolo[1,5-a]pyrimidine-3-carboxamide] | ++ (Compounds with a Cisplatin sensitization value >0.02 μM but <0.2 μM are marked with “++.”)
N#CCc1cnc2c(C(=O)Nc3cnccc3N3CCOCC3)c(N)nn2c1 [I-N-81, 2-amino-6-(cyanomethyl)-N-(4-morpholinopyridin-3-yl)pyrazolo[1,5-a]pyrimidine-3-carboxamide] | +++ (Compounds with a Cisplatin sensitization value of <0.02 μM are marked with “+++.”)
CN1CCN(c2ccncc2NC(=O)c2c(N)nn3cc(CC#N)cnc23)CC1 [I-N-82, 2-amino-6-(cyanomethyl)-N-(4-(4-methylpiperazin-1-yl)pyridin-3-yl)pyrazolo[1,5-a]pyrimidine-3-carboxamide] | ++ (Compounds with a Cisplatin sensitization value >0.02 μM but <0.2 μM are marked with “++.”)
N#CCc1cnc2c(C(=O)Nc3cnccc3N3CCC(O)CC3)c(N)nn2c1 [I-N-83, 2-amino-6-(cyanomethyl)-N-(4-(4-hydroxypiperidin-1-yl)pyridin-3-yl)pyrazolo[1,5-a]pyrimidine-3-carboxamide] | ++ (Compounds with a Cisplatin sensitization value >0.02 μM but <0.2 μM are marked with “++.”)
